Results on five compounds are retold here after patent publication EP4268800A1 (Prescience Biotechnology Inc., priority 2022, dated 2023).

One data set has as its system CT26 model. Briefly: Mouse colon cancer model. To be noted: 5-FU 25 mg/kg, RAP-E 25 mg/kg. The data set is classed as in vivo, Balb/c mice.
The conditions of data set [1]: previous intravenous injection formulation, in rats; cited from earlier work.
Data set [2] is described as follows: LD50 of previous intravenous injection formulation, converted to mice. To be noted: mouse, in vivo, equivalent of the rat value in mice, read-out: lethal dosage 50% (LD50), equivalent in mice.
In a further data set the test system is SKOV3 xenograft. Description: Xenograft ovarian tumor in mice. To be noted: docetaxel 4 mg/kg, RAP-E 50 mg/kg. The class given is in vivo, NOD/SCID mice. The text has this:
Akt and mTOR phosphorylation are frequently detected in ovarian cancer, and SKOV3, an ovarian cancer cell line, is resistant to cis-platinum and doxorubicin.

For data set [3] the following is noted: cited from earlier work.

Like-named read-outs stand apart in the source and are kept apart here.

Method for CT26 model: CT26 model on Balb/c mice was used as another animal model, classified as three groups: a control group (no drug), a comparative group (administration of 5-FU, dose: 25 mg/kg, Q3d^∗4) and the inventive group (administration of RAP-E formulation, dose: 25 mg/kg, Q3d^∗4). 6 week old Balb/c mice (BioLasco, Ilan, Taiwan) were inoculated subcutaneously with 1^∗10^5 CT26 cells (murine colorectal carcinoma cell). Following tumor inoculation, measuring the tumor size twice a week, and starting treatment when the tumor grows to 80-100 mm^3.

Take `O=c1[nH]cc(F)c(=O)[nH]1` [5-FU]: in the data set on CT26 model (Q3d*4), the Mean inhibition rate was found to be 11% and the “body weight change / toxicity” value was “significant weight loss”. For the same compound, in the data set with CT26 model (Q3d*4, day 16), the “Day 16 tumor inhibition rate” value is 26%.
In the case of `CO[C@H]1C[C@@H]2CC[C@@H](C)[C@@](O)(O2)C(=O)C(=O)N2CCCC[C@H]2C(=O)O[C@H]([C@H](C)C[C@@H]2CC[C@@H](O)[C@H](OC)C2)CC(=O)[C@H](C)/C=C(\C)[C@@H](O)[C@@H](OC)C(=O)[C@H](C)C[C@H](C)/C=C/C=C/C=C/1C` [Rapamycin], the “lethal dosage 50% (LD50)” value in data set [1] is recorded as 40 mg/kg. The LD50 in data set [2] amounted to 80 mg/kg.
Turning to `CC(=O)O[C@@]12CO[C@@H]1C[C@H](O)[C@@]1(C)C(=O)[C@H](O)C3=C(C)[C@@H](OC(=O)[C@H](O)[C@@H](NC(=O)OC(C)(C)C)c4ccccc4)C[C@@](O)([C@@H](OC(=O)c4ccccc4)[C@H]21)C3(C)C` [docetaxel], the Mean inhibition rate in the data set on SKOV3 xenograft (Q3d*4) is recorded as 53%. In addition, in the data set with SKOV3 xenograft (Q3d*4, day 39), the “Day 39 tumor inhibition rate” value was 57%.
For `CO[C@H]1C[C@@H]2CC[C@@H](C)[C@@](O)(O2)C(=O)C(=O)N2CCCC[C@H]2C(=O)O[C@H]([C@H](C)C[C@@H]2CC[C@@H](OCCO)[C@H](OC)C2)CC(=O)[C@H](C)/C=C(\C)[C@@H](O)[C@@H](OC)C(=O)[C@H](C)C[C@H](C)/C=C/C=C/C=C/1C` [everolimus], the bioavailability in data set [3] (in a tablet form) is given as ~ 20%.
Turning to `CO[C@H]1C[C@@H]2CC[C@@H](C)[C@@](O)(O2)C(=O)C(=O)N2CCCC[C@H]2C(=O)O[C@H]([C@H](C)C[C@@H]2CC[C@@H](OC(=O)C(C)(CO)CO)[C@H](OC)C2)CC(=O)[C@H](C)/C=C(\C)[C@@H](O)[C@@H](OC)C(=O)[C@H](C)C[C@H](C)/C=C/C=C/C=C/1C` [temsirolimus], the bioavailability result in data set [3] (via intravenous infusion) is reported as “up to 100%”.
